{
  "source": "paper PMC12486440",
  "about": "“Design, synthesis, and in silico studies of new benzofuran–pyrazole hybrids as multi-kinase inhibitors with potential antiproliferative activity” (RSC Advances, 2025)",
  "key": {"Breast cancer subpanel": {"tested_on": "Breast cancer subpanel", "assay": "NCI 60 subpanel summary", "type": "cell-based, human"}, "COLO 205": {"tested_on": "COLO 205", "details": "Homo sapiens, COLO 205"}, "RPMI-8226": {"tested_on": "RPMI-8226", "details": "Homo sapiens, RPMI-8226"}, "SK-OV-3": {"tested_on": "SK-OV-3", "details": "single dose 10 μM; ovarian carcinoma"}, "BT-549": {"tested_on": "BT-549", "details": "Homo sapiens, BT-549"}, "HepG-2 cancer cells": {"tested_on": "HepG-2 cancer cells", "assay": "Annexin V-FITC/PI apoptosis detection", "type": "cell-based, human", "details": "24 h", "experimental": "The annexin V-FITC apoptosis detection kit (BD Biosciences) was used to quantify the percentage of cells undergoing apoptosis and detect the modes of cell death, either by apoptosis or necrosis, in the presence or absence of the active compound 3d. The experiment was carried out according to the manufacturer's protocol. More details are presented in the SI.\nFlow cytometry assay employing annexin V-FITC and propidium iodide double labeling was used to further examine the apoptotic impact of compound 3d.[81,82] […] Additionally, 3d enhanced the late apoptotic effect from 0.17% in the control cells to 15.07% in the treated cells. Moreover, compound 3d promoted necrosis by 4.32% in the 3d-treated cells in comparison with 1.4% in the untreated ones (Table 5 and Fig. 4). These findings support the cytotoxic action of compound 3d on HepG-2 cells. In addition, it implies that its cytotoxic impact is not only due to it initiating programmed cell death pathways in an orderly manner but also its ability to effectively complete the apoptotic process, which results in the fragmentation and removal of cancer cells. […]\n5.2.4. Annexin-V FTIC apoptotic study\nEstimation of fractional DNA content (aka sub-G1 assay) is a widely used assay to determine apoptosis. Cleavage of genomic DNA into smaller fragments (180–200 bp lengths) is a hallmark for apoptosis in numerous cells. PI stained cells will stain less intensely and show a peak below the G1 peak (Sub-G1). In this work, flow cytometer with Annexin V-fluorescein isothiocyanate/propidium iodide FITC/PI double staining apoptosis detection kit (K101, Biovision) was used to study apoptosis of MCF-7 cells treated with compound 3d. Cells were incubated, collected by centrifugation, re-suspended in 500 μL of 1X binding buffer. Annexin V-FITC (5 μL) and PI (5 μL) was added and incubation was continued for additional 5 min in the dark at room temperature. Annexin V-FITC binding was analyzed by flow cytometry using FITC signal detector (FL1) and PI staining by FL2 phycoerythrin emission signal detector [75]."}, "CNS cancer subpanel": {"tested_on": "CNS cancer subpanel", "assay": "NCI 60 subpanel summary", "type": "cell-based, human"}, "MDA-MB-468": {"tested_on": "MDA-MB-468", "details": "single dose 10 μM; breast carcinoma"}, "NCI/ADR-RES": {"tested_on": "NCI/ADR-RES", "details": "Homo sapiens, NCI/ADR-RES"}, "Ovarian cancer subpanel": {"tested_on": "Ovarian cancer subpanel", "assay": "NCI 60 subpanel summary", "type": "cell-based, human"}, "MDA-MB-231/ATCC": {"tested_on": "MDA-MB-231/ATCC", "details": "Homo sapiens"}, "[1]": {"details": "single dose 10 μM, renal carcinoma"}, "[2]": {"details": "Homo sapiens, subpanel mean graph midpoint, read-out: MG-MID (GI50)"}, "[3]": {"details": "full panel MG-MID / subpanel MG-MID"}, "[4]": {"details": "single dose 10 μM, non-small lung carcinoma"}},
  "data": [
    {"smiles": "c1ccc(-n2cc(C3CC(c4nc5ccccc5[nH]4)=NN3)c(-c3cc4ccccc4o3)n2)cc1", "note": "(centres unmarked) [3d, 3-(Benzofuran-2-yl)-4-(3-(1H-benzo[d]imidazol-2-yl)-4,5-dihydro-1H-pyrazol-5-yl)-1-phenyl-1H-pyrazole]", "values": [
      {"measurement": "GI50", "setting": "CAKI-1; Homo sapiens, CAKI-1", "value": 2.57, "unit": "µM"},
      {"measurement": "GI%", "setting": "CAKI-1; [1]", "value": 92.45, "unit": "%"},
      {"measurement": "GI50", "setting": "Breast cancer subpanel; [2]", "value": 4.49, "unit": "µM"},
      {"measurement": "Selectivity index", "setting": "Breast cancer subpanel; [3]", "value": 0.935},
      {"measurement": "GI50", "setting": "SNB-19; Homo sapiens, SNB-19", "value": 3.77, "unit": "µM"},
      {"measurement": "GI%", "setting": "SNB-19; single dose 10 μM, CNS cancer", "value": 92.86, "unit": "%"},
      {"measurement": "GI50", "setting": "COLO 205", "value": 5.28, "unit": "µM"},
      {"measurement": "GI50", "setting": "NCI-H522; Homo sapiens, NCI-H522", "value": 3.48, "unit": "µM"},
      {"measurement": "GI%", "setting": "NCI-H522; [4]", "value": 96.77, "unit": "%"},
      {"measurement": "GI50", "setting": "RPMI-8226", "value": 3.04, "unit": "µM"},
      {"measurement": "GI50", "setting": "T-47D; Homo sapiens, T47D", "value": 3.12, "unit": "µM"},
      {"measurement": "GI%", "setting": "T-47D; single dose 10 μM, breast carcinoma", "value": 88.48, "unit": "%"},
      {"measurement": "GI%", "setting": "SK-OV-3", "value": 62.21, "unit": "%"},
      {"measurement": "GI50", "setting": "BT-549", "value": 3.85, "unit": "µM"},
      {"measurement": "Late apoptosis", "setting": "HepG-2 cancer cells; control 0.17", "value": 15.07, "unit": "%"},
      {"measurement": "Early apoptosis", "setting": "HepG-2 cancer cells; control 0.52", "value": 24.66, "unit": "%"},
      {"measurement": "Necrosis", "setting": "HepG-2 cancer cells; control 1.4", "value": 4.32, "unit": "%"},
      {"measurement": "Apoptosis, total", "setting": "HepG-2 cancer cells; control 2.09", "value": 44.05, "unit": "%"},
      {"measurement": "GI50", "setting": "M14; Homo sapiens, M14", "value": 3.22, "unit": "µM"},
      {"measurement": "GI%", "setting": "M14; single dose 10 μM, melanoma", "value": 83.05, "unit": "%"},
      {"measurement": "GI50", "setting": "CNS cancer subpanel; [2]", "value": 3.55, "unit": "µM"},
      {"measurement": "Selectivity index", "setting": "CNS cancer subpanel; [3]", "value": 1.18},
      {"measurement": "GI50", "setting": "SNB-75; Homo sapiens, SNB-75", "value": 2.72, "unit": "µM"},
      {"measurement": "GI%", "setting": "SNB-75; single dose 10 μM, CNS cancer", "value": 65.51, "unit": "%"},
      {"measurement": "GI50", "setting": "NCI-H23; Homo sapiens, NCI-H23", "value": 3.69, "unit": "µM"},
      {"measurement": "GI%", "setting": "NCI-H23; [4]", "value": 78.78, "unit": "%"},
      {"measurement": "GI%", "setting": "MDA-MB-468", "value": 70.95, "unit": "%"},
      {"measurement": "GI50", "setting": "MOLT-4; Homo sapiens, MOLT-4", "value": 4.13, "unit": "µM"},
      {"measurement": "GI%", "setting": "MOLT-4; single dose 10 μM, leukemia", "value": 88.75, "unit": "%"},
      {"measurement": "GI50", "setting": "NCI/ADR-RES", "value": 3.16, "unit": "µM"},
      {"measurement": "GI50", "setting": "A498; Homo sapiens, A498", "value": 12.7, "unit": "µM"},
      {"measurement": "GI%", "setting": "A498; [1]", "value": 54.33, "unit": "%"},
      {"measurement": "GI50", "setting": "Ovarian cancer subpanel; [2]", "value": 4.32, "unit": "µM"},
      {"measurement": "Selectivity index", "setting": "Ovarian cancer subpanel; [3]", "value": 0.97},
      {"measurement": "GI50", "setting": "K-562; Homo sapiens, K562", "value": 3.37, "unit": "µM"},
      {"measurement": "GI%", "setting": "K-562; single dose 10 μM, leukemia", "value": 92.52, "unit": "%"},
      {"measurement": "GI50", "setting": "SF-539; Homo sapiens, SF-539", "value": 3.97, "unit": "µM"},
      {"measurement": "GI%", "setting": "SF-539; single dose 10 μM, CNS cancer", "value": 85.47, "unit": "%"},
      {"measurement": "GI50", "setting": "MDA-MB-231/ATCC", "value": 4.78, "unit": "µM"},
      {"measurement": "GI50", "setting": "OVCAR-5; Homo sapiens, OVCAR-5", "value": 5.52, "unit": "µM"},
      {"measurement": "GI%", "setting": "OVCAR-5; single dose 10 μM, ovarian carcinoma", "value": 66.23, "unit": "%"},
      {"measurement": "GI50", "setting": "NCI-H460; Homo sapiens, NCI-H460", "value": 3.64, "unit": "µM"},
      {"measurement": "GI%", "setting": "NCI-H460; [4]", "value": 97.07, "unit": "%"},
      {"measurement": "GI50", "setting": "A549/ATCC; Homo sapiens, A549", "value": 3.86, "unit": "µM"},
      {"measurement": "GI%", "setting": "A549/ATCC; [4]", "value": 87.82, "unit": "%"},
      {"measurement": "GI50", "setting": "HCT-15; Homo sapiens, HCT-15", "value": 3.18, "unit": "µM"},
      {"measurement": "GI%", "setting": "HCT-15; single dose 10 μM, colon cancer", "value": 83.02, "unit": "%"}
    ]}
  ]
}
